# From ChEMBL document CHEMBL1130868, “Synthesis of betulinic acid derivatives with activity against human melanoma” (1998)
# Tests used:
# SK-MEL-2 = test: Cytotoxicity against cultured human melanoma (MEL-2) cell line.; type: functional; conditions: read-out: ED50 (the source's name)
# KB = test: Cytotoxicity against human epidermoid carcinoma of the mouth (KB) cell line.; type: functional; conditions: read-out: ED50 (the source's name)
Structure (SMILES),EC50 (SK-MEL-2),EC50 (KB)
"C=C(C)[C@@H]1CC[C@]2(/C=N/O)CC[C@]3(C)[C@H](CC[C@@H]4[C@@]5(C)CC/C(=N\O)C(C)(C)[C@@H]5CC[C@]43C)[C@@H]12 [BETULIN-3,28-DIOXIME]",2.2 mg/L,3.3 mg/L
C=C(C)[C@@H]1CC[C@]2(C(=O)O)CC[C@]3(C)[C@H](CC[C@@H]4[C@@]5(C)CC[C@H](O)C(C)(C)[C@@H]5CC[C@]43C)[C@@H]12 [BETULINIC ACID],1.2 mg/L,> 20 mg/L
C=C(C)[C@@H]1CC[C@]2(CO)CC[C@]3(C)[C@H](CC[C@@H]4[C@@]5(C)CC[C@H](O)C(C)(C)[C@@H]5CC[C@]43C)[C@@H]12 [BETULIN],> 20 mg/L,> 20 mg/L
C=C(C)[C@@H]1CC[C@]2(/C=N/OC)CC[C@]3(C)[C@H](CC[C@@H]4[C@@]5(C)CC/C(=N\OC)C(C)(C)[C@@H]5CC[C@]43C)[C@@H]12,> 20 mg/L,20 mg/L
C=C(C)[C@@H]1CC[C@]2(C(=O)O)CC[C@]3(C)[C@H](CC[C@@H]4[C@@]5(C)CCC(=O)C(C)(C)[C@@H]5CC[C@]43C)[C@@H]12 [BETUNOLIC ACID],0.9 mg/L,2.5 mg/L
CC(C)[C@@H]1CC[C@]2(C(=O)O)CC[C@]3(C)[C@H](CC[C@@H]4[C@@]5(C)CCC(=O)C(C)(C)[C@@H]5CC[C@]43C)[C@@H]12 [DIHYDROBETULONIC ACID],0.7 mg/L,> 20 mg/L
C=C(C)[C@@H]1CC[C@]2(C(=O)O)CC[C@]3(C)[C@H](CC[C@@H]4[C@@]5(C)CC/C(=N\OC)C(C)(C)[C@@H]5CC[C@]43C)[C@@H]12,8.3 mg/L,4.3 mg/L
C=C(C)[C@@H]1CC[C@]2(C)CC[C@]3(C)[C@H](CC[C@@H]4[C@@]5(C)CC[C@H](OC(=O)c6ccccc6)C(C)(C)[C@@H]5CC[C@]43C)[C@@H]12,> 20 mg/L,> 20 mg/L
C=C(C)[C@@H]1CC[C@]2(C(=O)O)CC[C@]3(C)[C@H](CC[C@@H]4[C@@]5(C)CC[C@H](N)C(C)(C)[C@@H]5CC[C@]43C)[C@@H]12,1.3 mg/L,–
C=C(C)[C@@H]1CC[C@]2(C)CC[C@]3(C)[C@H](CC[C@@H]4[C@@]5(C)CC[C@H](O)C(C)(C)[C@@H]5CC[C@]43C)[C@@H]12 [LUPEOL],17.6 mg/L,> 20 mg/L
CC(C)[C@@H]1CC[C@]2(C(=O)O)CC[C@]3(C)[C@H](CC[C@@H]4[C@@]5(C)CC[C@H](O)C(C)(C)[C@@H]5CC[C@]43C)[C@@H]12 [DIHYDROBETULINIC ACID],5.8 mg/L,> 20 mg/L
CO/N=C1\CC[C@]2(C)[C@H]3CC[C@@H]4[C@H]5[C@H](C(C)C)CC[C@]5(C(=O)O)CC[C@@]4(C)[C@]3(C)CC[C@H]2C1(C)C,> 20 mg/L,> 20 mg/L
C=C(C)[C@@H]1CC[C@]2(C(=O)OC)CC[C@]3(C)[C@H](CC[C@@H]4[C@@]5(C)CC[C@H](O)C(C)(C)[C@@H]5CC[C@]43C)[C@@H]12 [METHYL BETULINATE],8.3 mg/L,11.8 mg/L
CC(C)[C@@H]1CC[C@]2(C(=O)O)CC[C@]3(C)[C@H](CC[C@@H]4[C@@]5(C)CC/C(=N\O)C(C)(C)[C@@H]5CC[C@]43C)[C@@H]12,2.2 mg/L,> 20 mg/L
C=C(C)[C@@H]1CC[C@]2(C=O)CC[C@]3(C)[C@H](CC[C@@H]4[C@@]5(C)CCC(=O)C(C)(C)[C@@H]5CC[C@]43C)[C@@H]12 [BETULONAL],7.4 mg/L,12.9 mg/L
